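All cell lines were grown in 96-well plates and treated with compound for 48 hours. GI50 marks 50% less growth. TGI: total growth inhibition.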
Tests used:
Test in all cases: inhibition of tumour cell growth, NCI panel, 48 h
CCRF-CEM leukemia = test system: CCRF-CEM leukemia
HOP-62 NSCLC = test system: HOP-62 NSCLC
SF-295 CNS = test system: SF-295 CNS
MDA-MB-435 = test system: MDA-MB-435
EKVX NSCLC = test system: EKVX NSCLC
LOX IMVI melanoma = test system: LOX IMVI melanoma
BT-549 breast = test system: BT-549 breast
M14 melanoma = test system: M14 melanoma
HT29 colon = test system: HT29 colon
786-0 renal = test system: 786-0 renal
SN12C renal = test system: SN12C renal
T-47D breast = test system: T-47D breast
UACC-62 melanoma = test system: UACC-62 melanoma
A549 NSCLC = test system: A549 NSCLC
HCT-116 colon = test system: HCT-116 colon
SW-620 colon = test system: SW-620 colon
SK-MEL-2 melanoma = test system: SK-MEL-2 melanoma
MDA-MB-231 breast = test system: MDA-MB-231 breast
HL-60(TB) leukemia = test system: HL-60(TB) leukemia
NCI-H226 lung = test system: NCI-H226 lung
ACHN renal = test system: ACHN renal
MOLT-4 leukemia = test system: MOLT-4 leukemia
HS 578T breast = test system: HS 578T breast
MCF7 breast = test system: MCF7 breast
KM12 colon = test system: KM12 colon
RXF 393 renal = test system: RXF 393 renal
SK-OV-3 ovarian = test system: SK-OV-3 ovarian
MDA-MB-468 breast = test system: MDA-MB-468 breast
COLO 205 colon = test system: COLO 205 colon
SR leukemia = test system: SR leukemia
HOP-92 NSCLC = test system: HOP-92 NSCLC
UACC-257 melanoma = test system: UACC-257 melanoma
NCI/ADR-RES ovarian = test system: NCI/ADR-RES ovarian
HCC-2998 colon = test system: HCC-2998 colon
DU-145 prostate = test system: DU-145 prostate
TK-10 renal = test system: TK-10 renal
RPMI-8226 leukemia = test system: RPMI-8226 leukemia
K-562 leukemia = test system: K-562 leukemia
SK-MEL-5 melanoma = test system: SK-MEL-5 melanoma
UO-31 renal = test system: UO-31 renal
MALME-3M melanoma = test system: MALME-3M melanoma
CAKI-1 renal = test system: CAKI-1 renal
OVCAR-4 ovarian = test system: OVCAR-4 ovarian
SF-539 CNS = test system: SF-539 CNS
SK-MEL-28 melanoma = test system: SK-MEL-28 melanoma
SF-268 CNS = test system: SF-268 CNS
NCI-H460 lung = test system: NCI-H460 lung
HCT-15 colon = test system: HCT-15 colon
SNB-19 CNS = test system: SNB-19 CNS
U251 CNS = test system: U251 CNS
OVCAR-5 ovarian = test system: OVCAR-5 ovarian
NCI-H522 lung = test system: NCI-H522 lung
NCI-H23 lung = test system: NCI-H23 lung
A498 renal = test system: A498 renal
OVCAR-3 ovarian = test system: OVCAR-3 ovarian
OVCAR-8 ovarian = test system: OVCAR-8 ovarian
IGROV1 ovarian = test system: IGROV1 ovarian
PC-3 prostate = test system: PC-3 prostate
SNB-75 CNS = test system: SNB-75 CNS

`CCN1C(=O)N(CC)C2NNC(Sc3c(C(=O)O)c4ccccc4n(CC(C)C)c3=O)=NC21` (stereo not drawn) showed a GI50 (CCRF-CEM leukemia) of 3.54 µM, a TGI (CCRF-CEM leukemia) of over 100 µM and a GI50 (HOP-62 NSCLC) of 5.42 µM. The TGI (HOP-62 NSCLC) was over 100 µM, the GI50 (SF-295 CNS) was 3.01 µM and the TGI (SF-295 CNS) was 16.3 µM. For the same molecule, the GI50 (MDA-MB-435) was 0.976 µM, the TGI (MDA-MB-435) was 4.19 µM and the GI50 (EKVX NSCLC) was 3.11 µM. It also gave a TGI (EKVX NSCLC) of over 100 µM, a GI50 (LOX IMVI melanoma) of 4.13 µM and a TGI (LOX IMVI melanoma) of 20.6 µM. For the same molecule, the GI50 (BT-549 breast) was 35.7 µM, the TGI (BT-549 breast) was over 100 µM and the GI50 (M14 melanoma) was 4 µM. It also gave a TGI (M14 melanoma) of over 100 µM, a GI50 (HT29 colon) of 2.83 µM and a TGI (HT29 colon) of 12.5 µM. The GI50 (786-0 renal) was 7.45 µM, the TGI (786-0 renal) was over 100 µM and the GI50 (SN12C renal) was 3.62 µM. The TGI (SN12C renal) was 34.4 µM, the GI50 (T-47D breast) was over 100 µM and the TGI (T-47D breast) was over 100 µM. It also gave a GI50 (UACC-62 melanoma) of 2.68 µM, a TGI (UACC-62 melanoma) of 33.5 µM and a GI50 (A549 NSCLC) of 4.6 µM. The TGI (A549 NSCLC) was over 100 µM, the GI50 (HCT-116 colon) was 3.18 µM and the TGI (HCT-116 colon) was over 100 µM. For the same molecule, the GI50 (SW-620 colon) was 4.05 µM, the TGI (SW-620 colon) was over 100 µM and the GI50 (SK-MEL-2 melanoma) was 4.21 µM. For the same molecule, the TGI (SK-MEL-2 melanoma) was over 100 µM, the GI50 (MDA-MB-231 breast) was 2.51 µM and the TGI (MDA-MB-231 breast) was 21.9 µM. It also gave a GI50 (HL-60(TB) leukemia) of 2.37 µM, a TGI (HL-60(TB) leukemia) of 12.9 µM and a GI50 (NCI-H226 lung) of 3.92 µM. The TGI (NCI-H226 lung) was 21.1 µM, the GI50 (ACHN renal) was 4.73 µM and the TGI (ACHN renal) was 46.2 µM. The GI50 (MOLT-4 leukemia) was 3.66 µM, the TGI (MOLT-4 leukemia) was over 100 µM and the GI50 (HS 578T breast) was 2.94 µM. It also gave a TGI (HS 578T breast) of 58.8 µM, a GI50 (MCF7 breast) of 0.949 µM and a TGI (MCF7 breast) of 21.5 µM. For the same molecule, the GI50 (KM12 colon) was 2.93 µM, the TGI (KM12 colon) was over 100 µM and the GI50 (RXF 393 renal) was 3.17 µM. The TGI (RXF 393 renal) was 17.1 µM, the GI50 (SK-OV-3 ovarian) was 6.05 µM and the TGI (SK-OV-3 ovarian) was over 100 µM. It also gave a GI50 (MDA-MB-468 breast) of 0.442 µM, a TGI (MDA-MB-468 breast) of 3.91 µM and a GI50 (COLO 205 colon) of 2.53 µM. For the same molecule, the TGI (COLO 205 colon) was 6.95 µM, the GI50 (SR leukemia) was 13.2 µM and the TGI (SR leukemia) was over 100 µM. For the same molecule, the GI50 (HOP-92 NSCLC) was 14.4 µM, the TGI (HOP-92 NSCLC) was 64.1 µM and the GI50 (UACC-257 melanoma) was 14.7 µM. The TGI (UACC-257 melanoma) was over 100 µM, the GI50 (NCI/ADR-RES ovarian) was 1.99 µM and the TGI (NCI/ADR-RES ovarian) was 4.89 µM. The GI50 (HCC-2998 colon) was 3.28 µM, the TGI (HCC-2998 colon) was 16.9 µM and the GI50 (DU-145 prostate) was 4.49 µM. The TGI (DU-145 prostate) was over 100 µM, the GI50 (TK-10 renal) was 18.4 µM and the TGI (TK-10 renal) was over 100 µM. For the same molecule, the GI50 (RPMI-8226 leukemia) was 2.75 µM, the TGI (RPMI-8226 leukemia) was over 100 µM and the GI50 (K-562 leukemia) was 2.77 µM. The TGI (K-562 leukemia) was over 100 µM, the GI50 (SK-MEL-5 melanoma) was 3.83 µM and the TGI (SK-MEL-5 melanoma) was 16.4 µM. It also gave a GI50 (UO-31 renal) of 4.11 µM, a TGI (UO-31 renal) of over 100 µM and a GI50 (MALME-3M melanoma) of 5.23 µM. It also gave a TGI (MALME-3M melanoma) of 47.7 µM, a GI50 (CAKI-1 renal) of 3.1 µM and a TGI (CAKI-1 renal) of 23.2 µM. It also gave a GI50 (OVCAR-4 ovarian) of 15 µM, a TGI (OVCAR-4 ovarian) of over 100 µM and a GI50 (SF-539 CNS) of 2.08 µM. The TGI (SF-539 CNS) was 5.47 µM, the GI50 (SK-MEL-28 melanoma) was 6.5 µM and the TGI (SK-MEL-28 melanoma) was over 100 µM. It also gave a GI50 (SF-268 CNS) of 6.46 µM, a TGI (SF-268 CNS) of over 100 µM and a GI50 (NCI-H460 lung) of 3.08 µM. It also gave a TGI (NCI-H460 lung) of 12.2 µM, a GI50 (HCT-15 colon) of 1.89 µM and a TGI (HCT-15 colon) of 18.8 µM. It also gave a GI50 (SNB-19 CNS) of 3.78 µM, a TGI (SNB-19 CNS) of 65 µM and a GI50 (U251 CNS) of 3.91 µM. It also gave a TGI (U251 CNS) of over 100 µM, a GI50 (OVCAR-5 ovarian) of 4.19 µM and a TGI (OVCAR-5 ovarian) of 67.1 µM. The GI50 (NCI-H522 lung) was 1.88 µM, the TGI (NCI-H522 lung) was 5.97 µM and the GI50 (NCI-H23 lung) was 3.67 µM. It also gave a TGI (NCI-H23 lung) of 21.4 µM, a GI50 (A498 renal) of over 100 µM and a TGI (A498 renal) of over 100 µM. It also gave a GI50 (OVCAR-3 ovarian) of 3.19 µM, a TGI (OVCAR-3 ovarian) of 22.3 µM and a GI50 (OVCAR-8 ovarian) of 3.55 µM. It also gave a TGI (OVCAR-8 ovarian) of 30.1 µM, a GI50 (IGROV1 ovarian) of 2.54 µM and a TGI (IGROV1 ovarian) of 19.3 µM. The GI50 (PC-3 prostate) was 4.14 µM, the TGI (PC-3 prostate) was over 100 µM and the GI50 (SNB-75 CNS) was 1.81 µM. It also gave a TGI (SNB-75 CNS) of 9.27 µM.
